The text below walks through data of US4567302A, “Polymeric quaternary ammonium salts possessing antimicrobial activity and methods for preparation and use thereof” (priority 1984, dated 1986).

SMILES strings stand for the structures.

The test system of this test is microorganisms. The test is described as follows: Biocidal activity evaluation, overall comparison in words. Type of test: cell-based. The method, then: The biocidal activity evaluations of the present invention quaternary ammonium salts and mixtures thereof as well as of commercially available biocides (for comparison purposes) were conducted using the Dynatech MIC-2000 system (available from Dynatech Laboratories, Inc., Alexandria, Va.). The Dynatech MIC-2000 system provides a quantitative factor, namely the specific concentration of the compound that inhibits the growth of a test organism.
All compounds were prepared for testing by initially making a 1.0% w/v solution. These were then serially diluted so as to yield concentrations of sample in a range of 2000-16 mg/l. Testing was carried out under aseptic conditions in Trypticase Soy Broth (BBL, Div. Becton, Dickinson & Co., Cockeysville, MD). Each test was performed in duplicate and run at pH levels of 7.0, 8.0, and 9.0. The pH of the test medium was adjusted by the addition of 10% w/v NaOH before sterilization.
Organisms utilized for MIC testing were all purchased from the American Type Culture Collection (ATCC), Rockville, MD. The six organisms chosen for these tests were:
Inocula were prepared in Brain Heart Infusion Broth (BHI, Difco Laboratories, Detroit, MI), and standardized to 3.0×10^8 CFU/ml in 0.85% sterile saline. […] Plates were read and evaluated at this time, and results reported in mg/l of compound that inhibited the growth of the test organisms.

With `O=[N+]([O-])C(Br)(CO)CO` [Bronopol], the “biocidal activity (in words)” value is given as “more active than the quaternary ammonium salts of the present invention”.
